From paper PMC8144059 (Drug metabolism and pharmacokinetics, 2021)

Biological target: CYP3A4.1 (WT) (Homo sapiens, UniProt P08684)
Details: Figure 2, CYP3A4.1, TST 10–500 μM, n=5

Sequence of CYP3A4.1 (WT) (P08684 2-503): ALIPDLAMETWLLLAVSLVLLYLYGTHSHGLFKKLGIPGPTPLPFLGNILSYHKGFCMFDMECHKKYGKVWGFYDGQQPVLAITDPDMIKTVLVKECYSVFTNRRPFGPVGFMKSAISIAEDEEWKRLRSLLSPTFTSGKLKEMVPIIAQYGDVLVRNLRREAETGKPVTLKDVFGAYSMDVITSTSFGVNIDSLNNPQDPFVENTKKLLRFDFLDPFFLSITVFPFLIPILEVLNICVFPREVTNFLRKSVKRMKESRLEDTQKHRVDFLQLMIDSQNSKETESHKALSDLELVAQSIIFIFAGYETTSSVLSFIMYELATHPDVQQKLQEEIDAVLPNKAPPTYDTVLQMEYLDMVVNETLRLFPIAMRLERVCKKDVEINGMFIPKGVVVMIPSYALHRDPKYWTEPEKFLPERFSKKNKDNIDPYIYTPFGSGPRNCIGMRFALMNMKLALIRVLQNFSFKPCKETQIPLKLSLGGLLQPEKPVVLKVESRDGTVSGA

Compound: OC(Cn1cncn1)(Cn1cncn1)c1ccc(F)cc1F [FCZ, fluconazole]
- Inhibition of CYP3A4 activity (TST metabolism): inhibited CYP3A4 activity in a concentration-dependent manner
